Key:
CYP2C19 = CYP2C19 (Homo sapiens, UniProt P33261); assay: IC50-shift experiment, CYP2C19 in HLMs; type: in vitro ADME; set-up: 0.20 mg/mL HLMs or 0.20 mg/mL RLMs; from tissue; host or cells: human liver microsomes; conditions: for IC50: mephenytoin 90 μM
Experimental: (§1) The components of the incubation system were as follows: 0.20 mg/mL HLMs or 0.20 mg/mL RLMs, 0.1 M Tris-HCl, vortioxetine, and the probe substrates of each enzyme. In the study of Km’s (Michaelis–Menten constant) experiment, midazolam (1, 2, 5, 10, 20, 50 and 100 μM in HLMs and RLMs) corresponded to CYP3A4/3A; bupropion (10, 20, 50, 100, 200, 500, 1,000 and 2000 μM in HLMs; 1, 2, 5, 10, 20, 50, 100 and 200 μM in RLMs) corresponded to CYP2B6/2B; amodiaquine (5, 10, 20, 50, 100 and 200 μM in HLMs; 10, 20, 50, 100, 200, 500 μM in RLMs) corresponded to CYP2C8/CYP2C-1; losartan (1, 2, 5, 10, 20, 50, 100, 200 μM in HLMs; 10, 20, 50, 100, 200, 500 and 1,000 μM in RLMs) corresponded to CYP2C9/CYP2C-2; mephenytoin (20, 50, 100, 200, 500 and 1,000 μM in HLMs; 5, 10, 20, 50, 100, 200, 500 and 1,000 μM in RLMs) corresponded to CYP2C19/CYP2C-3; and dextromethorphan (1, 2, 5, 10, 20, 50 and 100 μM in HLMs and RLMs) corresponded to CYP2D6/CYP2D. After 5.0 min of preincubation in the shaking water bath, the reaction was started with the addition of 1.0 mM NADPH. The incubated temperature at 37°C for 30 min. After the incubation, the enzyme reaction was stopped by cooling at −80°C, and 200 μL of acetonitrile and 20 μL of internal standard diazepam (200 ng/mL) were added for protein precipitation. The solution was fully vortexed and centrifuged at 13,000 × rpm for 10 min, and the supernatant was collected for data analysis by UPLC-MS/MS.
IC50-shift was used to investigate whether the drug produced time-dependent inhibition (TDI) of the enzyme. […] The above mixture was then incubated for another 30 min. During the experiment, the individual substrates midazolam (4 μM), bupropion (40 μM), amodiaquine (3 μM), losartan (8 μM), mephenytoin (90 μM), and dextromethorphan (10 μM) were determined with vortioxetine IC50-shift in HLMs. […] Other experimental conditions were the same as above.
All experiments results were detected by UPLC-MS/MS, which equipped with a Waters Acquity UPLC system (Milford, MA, United States) and a Waters Xevo TQ-S triple quadrupole tandem mass spectrometer with an electrospray ionization source (Milford, MA, United States). The chromatographic separation was performed on a Waters ACQUITY UPLC BEH C18 column (2.1 × 50 mm, 1.7 μm, Waters Corp.) at 40°C. The mobile phase was consisted of acetonitrile (A) and 0.1% formic acid in water (B). The gradient elution at a flow rate of 0.4 mL/min was conducted as follows: 0–0.5 min, 10% A; 0.5–1.0 min, 10%–90% A; 1.0–2.0 min, 90% A; 2.0–2.1 min, 90%–10% A, and 2.1–3.0 min, 10% A. The relevant analysis parameters were shown in Table 1.
(§2) IC50 values and enzyme kinetic parameters were calculated by Graphpad Prism 6.0 (GraphPad software Inc., CA, United States). […] Data for each experiment were expressed as mean ± SD (n = 3).

[1] = set-up: method as in earlier work; conditions: patients with severe liver impairment; single oral dose of 10 mg; ref (2022); cited from earlier work
CYP2C-2 = assay: IC50-shift experiment, CYP2C-2 in RLMs; type: in vitro ADME, rat; conditions: for IC50 at 30 min: losartan 15 μM
CYP2B6 = target: T1, CYP2B6 (Homo sapiens, UniProt P20813); assay: IC50-shift experiment, CYP2B6 in HLMs; type: in vitro ADME; set-up: 0.20 mg/mL HLMs or 0.20 mg/mL RLMs; from tissue; host or cells: human liver microsomes; conditions: for IC50: bupropion 40 μM
T1 sequence (P20813 1-491): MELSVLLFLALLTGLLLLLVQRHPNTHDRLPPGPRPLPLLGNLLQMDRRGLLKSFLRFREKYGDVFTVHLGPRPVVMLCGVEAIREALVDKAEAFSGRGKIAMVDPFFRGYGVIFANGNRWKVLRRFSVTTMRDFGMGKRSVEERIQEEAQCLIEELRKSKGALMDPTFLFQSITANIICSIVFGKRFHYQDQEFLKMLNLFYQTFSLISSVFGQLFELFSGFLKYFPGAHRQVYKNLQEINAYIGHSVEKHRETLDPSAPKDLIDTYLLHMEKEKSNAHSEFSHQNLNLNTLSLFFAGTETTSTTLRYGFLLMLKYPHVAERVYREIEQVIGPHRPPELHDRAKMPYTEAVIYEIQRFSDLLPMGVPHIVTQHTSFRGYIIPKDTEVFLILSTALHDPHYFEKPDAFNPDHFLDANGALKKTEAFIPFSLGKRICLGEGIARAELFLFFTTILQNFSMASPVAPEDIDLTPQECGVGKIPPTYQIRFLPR
Experimental: as §1, with “The solution was fully vortexed and centrifuged at 13,000 × rpm for 10 min, and the supernatant was collected for data analysis by UPLC-MS/MS.” left out
IC50-shift was used to investigate whether the drug produced time-dependent inhibition (TDI) of the enzyme. […] During the experiment, the individual substrates midazolam (4 μM), bupropion (40 μM), amodiaquine (3 μM), losartan (8 μM), mephenytoin (90 μM), and dextromethorphan (10 μM) were determined with vortioxetine IC50-shift in HLMs. […]
All experiments results were detected by UPLC-MS/MS, which equipped with a Waters Acquity UPLC system (Milford, MA, United States) and a Waters Xevo TQ-S triple quadrupole tandem mass spectrometer with an electrospray ionization source (Milford, MA, United States). […]
as §2

[2] = preincubation with NADPH vs without

Sequence of CYP2C19 (P33261 whole entry): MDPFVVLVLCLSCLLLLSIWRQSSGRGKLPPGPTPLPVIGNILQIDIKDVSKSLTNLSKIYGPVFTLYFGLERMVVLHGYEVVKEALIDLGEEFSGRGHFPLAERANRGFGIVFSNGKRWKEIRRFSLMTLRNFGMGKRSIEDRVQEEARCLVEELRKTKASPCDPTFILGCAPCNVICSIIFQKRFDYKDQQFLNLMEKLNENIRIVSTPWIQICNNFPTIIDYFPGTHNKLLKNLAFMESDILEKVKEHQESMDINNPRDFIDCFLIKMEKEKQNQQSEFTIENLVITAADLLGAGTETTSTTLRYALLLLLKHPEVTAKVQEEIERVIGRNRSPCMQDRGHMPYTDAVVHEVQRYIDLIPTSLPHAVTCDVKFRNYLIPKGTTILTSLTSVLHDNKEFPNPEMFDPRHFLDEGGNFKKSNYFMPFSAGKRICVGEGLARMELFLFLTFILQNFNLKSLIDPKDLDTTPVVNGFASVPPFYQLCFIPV

IC50 (CYP2C19; CYP2C19, 30 min preincubation with 1.0 mM NADPH): 2.83 µM
IC50 (CYP2C19; CYP2C19, 30 min preincubation without NADPH): 5.88 µM
activity of CYP2C19 with the NADPH (CYP2C19; [2]): significantly reduced
activity of CYP2C-2 with the NADPH (CYP2C-2; [2]): significantly increased
IC50 at 30 min (CYP2C-2; rat, rat liver microsomes, probe losartan, CYP2C-2, 30 min preincubation with 1.0 mM NADPH): 37.5 µM
IC50 at 30 min (CYP2C-2; rat, rat liver microsomes, probe losartan, CYP2C-2, 30 min preincubation without NADPH): 8.97 µM
IC50 (CYP2B6; 30 min preincubation with 1.0 mM NADPH): 6.69 µM
IC50 (CYP2B6; 30 min preincubation without NADPH): 5.38 µM
SMILES: Cc1ccc(Sc2ccccc2N2CCNCC2)c(C)c1 [vortioxetine]
IC50 shift at 30 min (CYP2C19; human, human liver microsomes, probe mephenytoin (90 μM), CYP2C19, ratio IC50 (−) NADPH to IC50 (+) NADPH, read-out: IC50 fold shift): 2.08
AUC(0-t) higher than healthy subjects [1]: 10%
Cmax lower than healthy subjects [1]: 24%
IC50 shift at 30 min (CYP2C-2; rat, rat liver microsomes, probe losartan, CYP2C-2, ratio IC50 (−) NADPH to IC50 (+) NADPH, read-out: IC50 fold shift): 0.24
IC50 shift at 30 min (CYP2B6; human, human liver microsomes, probe bupropion (40 μM), ratio IC50 (−) NADPH to IC50 (+) NADPH, read-out: IC50 fold shift): 0.8
